SMILES strings stand for the structures. Structures can show the parent of a compound that is named as a salt.

Tested on in one series: not given
Experiment: not given
In turn, `COCC=Cc1nc(C(=O)NN(C)C)c(O)c2ncc(Cc3ccc(F)cc3)cc12` [Example B-19, 3-(4-fluorobenzyl)-8-hydroxy-5-(3-methoxypropenyl)[1,6]naphthyridine-7-carboxylic acid N′,N′-dimethylhydrazide] displayed a melting point of 115 to 116 °C. In the case of `CC(O)c1nc(C(=O)NN(C)C)c(O)c2ncc(Cc3ccc(F)cc3)cc12` (stereo not drawn) [Example B-18, 3-(4-fluorobenzyl)-8-hydroxy-5-(1-hydroxyethyl)[1,6]naphthyridine-7-carboxylic acid N′,N′-dimethylhydrazide], the melting point was 114 to 116 °C.

As for `COCCNC(=O)c1nc(C(C)O)c2cc(Cc3ccc(F)cc3)cnc2c1O` (stereo not drawn) [Example B-3, 3-(4-fluorobenzyl)-8-hydroxy-5-(1-hydroxyethyl)[1,6]naphthyridine-7-carboxylic acid (2-methoxyethyl) amide], the melting point was 179 °C. For `COCCNC(=O)c1nc(C(=O)OCCOC)c2cc(Cc3ccc(F)cc3)cnc2c1O` [Example A-5, 3-(4-fluorobenzyl)-8-hydroxy-7-(2-methoxyethylcarbamoyl)[1,6]naphthyridine-5-carboxylic acid 2-methoxyethyl ester], the melting point fell in the range of 139 to 141 °C. Consider `COCCNC(=O)c1nc(C(=O)OC2CCN(C(C)=O)CC2)c2cc(Cc3ccc(F)cc3)cnc2c1O` [Example A-6, 3-(4-fluorobenzyl)-8-hydroxy-7-(2-methoxyethylcarbamoyl)[1,6]naphthyridine-5-carboxylic acid 1-acetylpiperidine-4-yl ester], for which the melting point lay within 92 to 94 °C.

For `COCC=Cc1nc(C(=O)NCCN(C)C)c(O)c2ncc(Cc3ccc(F)cc3)cc12.Cl.O` (hydrate or solvate) [Example B-20, 3-(4-fluorobenzyl)-8-hydroxy-5-(3-methoxypropenyl)[1,6]naphthyridine-7-carboxylic acid (2-dimethylaminoethyl)amide hydrochloride monohydrate], the melting point fell in the range of 156 to 158 °C.

On to `CN(C)NC(=O)c1nc(NC(=O)C(=O)N(C)C)c2cc(Cc3ccc(F)cc3)cnc2c1O` [Example B-26, N-[7-(N′,dimethylhydrazinocarbonyl)-3-(4-fluorobenzyl)-8-hydroxy[1,6]naphthyridine-5-yl]-N′,N′-dimethyl oxalamide], for which the melting point lay in the range of 125 to 128 °C. As for `CNC(=O)C(=O)Nc1nc(C(=O)NC(C)CO)c(O)c2ncc(Cc3ccc(F)cc3)cc12` (stereo not drawn) [Example B-28, N-[3-(4-fluorobenzyl)-8-hydroxy-7-(2-hydroxy-1-methylethylcarbamoyl)[1,6]naphthyridine-5-yl]-N′-methyl oxalamide], the melting point is 131 to 133 °C. `CNC(=O)C(=O)Nc1nc(C(=O)NCCO)c(O)c2ncc(Cc3ccc(F)cc3)cc12` [Example B-27, N-[3-(4-fluorobenzyl)-8-hydroxy-7-(2-hydroxyethylcarbamoyl)[1,6]naphthyridine-5-yl]-N′-methyl oxalamide] yielded a melting point of 136 to 137 °C. `COCCNC(=O)C(=O)Nc1nc(C(=O)NN(C)C)c(O)c2ncc(Cc3ccc(F)cc3)cc12` [Example B-25, N-[7-(N′,N′-dimethylhydrazinocarbonyl)-3-(4-fluorobenzyl)-8-hydroxy[1,6]naphthyridine-5-yl]-N′-(2-methoxyethyl)oxalamide] came in with a melting point of 167 to 169 °C.

Another series has as its target HIV integrase (Human immunodeficiency virus type 1 group M subtype B, UniProt P04585). The series is described as follows: biochemical.
Procedure: The inhibitory activities against integrase were determined by the assay described below. • (1) Preparation of DNA Solutions
Before using the DNA solutions, complementary chains were annealed by slowly cooling after boiling.
Streptavidin, obtained from Vector Laboratories, was dissolved in 0.1 M carbonate buffer (composition: 90 mM Na2CO3, 10 mM NaHCO3) at concentration of 40 μg/ml. After coating each well of immunoplates (obtained from NUNC) with 50 μl of the above solution at 4° C. over night, each well was washed twice with PBS (composition: 13.7 mM NaCl, 0.27 mM KCl, 0.43 mM Na2HPO4, 0.14 mM KH2PO4) and blocked with 300 μl of 1% skim milk in PBS for 30 min. Additionally, each well was washed twice with PBS and added 50 μl of substrate DNA solution (2 pmol/μl). The immunoplates were kept at room temperature for 30 min while shaking. Then, each well was washed twice with PBS and once with the distilled water.
Subsequently, in the each well prepared above were added 51 μl of the reaction solution prepared from 12 μl of the buffer (composition: 150 mM MOPS (pH7.2), 75 mM MnCl2, 50 mM 2-mercaptoethanol, 25% glycerol, 500 μg/ml bovine serum albumin-fraction V), and 39 μl of the distilled water. Then 9 μl of an integrase solution (30 pmol) was added and mixed well. In the well of negative control (NC) was added 9 μl of the integrase dilution buffer (composition: 20 mM MOPS (pH7.2), 400 mM potassium glutamate, 1 mM EDTA, 0.1% NP-40, 20% glycerol, 1 mM DTT, 4M urea), and mixed well using a plate mixer.
The plates were incubated at 30° C. for 60 minutes. The reaction solution was removed and washed three times with 250 μl of washing buffer (composition: 150 mM MOPS (pH7.2), 50 mM 2-mercaptoethanol, 25% glycerol, 500 μg/ml bovine serum albumin-fraction V).
Then each well was added with 53 μl of reaction solution prepared from 12 μl of buffer (composition: 150 mM MOPS (pH7.2), 75 mM MgCl2, 50 mM 2-mercaptoethanol, 25% glycerol, 500 μg/ml bovine serum albumin-fraction V) and 41 μl of distilled water. Further, each well was added with 6 μl of DMSO solution of a compound to be tested, and the well of positive control (PC) was added with 6 μl of DMSO, and mixed well by a plate mixer. After incubating the plate for 30 minutes at 30° C., was added 1 μl of target DNA (5 pmol/μl), and mixed well by a plate mixer.
After incubation for 10 minutes at 30° C., each plate was washed twice with PBS after removal of the reaction solution. Then, 100 μl of ×2000 diluted solution of anti-digoxigenin antibody labeled with alkaline phosphatase (sheep Fab fragment: Boehringer) was added allowed to bind for 1 hour at 30° C., and washed twice with PBS containing 0.05% Tween20 and once with PBS in this sequence. Next, 150 μl of the Alkaline phosphatase coloring buffer (composition: 10 mM p-Nitrophenylphosphate (obtained from Vector Laboratories), 5 mM MgCl2, 100 mM NaCl, 100 mM Tris-HCl (pH 9.5)) was added and allowed to react for 2 hours at 30° C. Then the reaction was terminated by the addition of 50 μl of 1N NaOH solution. The optical density at 405 nm (OD405nm) of each well was measured and the inhibition rate (IC50) was determined by the following expression. The inhibition rate(%)=100[1−{(C abs.−NC abs.)/(PC abs.−NC abs.)}]
C abs.; the OD of the well of the compound
NC abs.: the OD of the negative control (NC)
PC abs.: the OD of the positive control (PC)
`COCC=Cc1nc(C(=O)NN(C)C)c(O)c2ncc(Cc3ccc(F)cc3)cc12` [Example B-19, 3-(4-fluorobenzyl)-8-hydroxy-5-(3-methoxypropenyl)[1,6]naphthyridine-7-carboxylic acid N′,N′-dimethylhydrazide] had an IC50 of 11.2 nM. Turning to `CC(O)c1nc(C(=O)NN(C)C)c(O)c2ncc(Cc3ccc(F)cc3)cc12` (stereo not drawn) [Example B-18, 3-(4-fluorobenzyl)-8-hydroxy-5-(1-hydroxyethyl)[1,6]naphthyridine-7-carboxylic acid N′,N′-dimethylhydrazide], half-maximal inhibition (IC50) was put at 44.2 nM. On to `COCCNC(=O)c1nc(C(C)O)c2cc(Cc3ccc(F)cc3)cnc2c1O` (stereo not drawn) [Example B-3, 3-(4-fluorobenzyl)-8-hydroxy-5-(1-hydroxyethyl)[1,6]naphthyridine-7-carboxylic acid (2-methoxyethyl) amide], for which the midpoint of inhibition, the IC50, lay at 17 nM.

`COCC(=O)Nc1nc(C(=O)NCCN(C)C)c(O)c2ncc(Cc3ccc(F)cc3)cc12` [Example B-9, 3-(4-fluorobenzyl)-8-hydroxy-5-(2-methoxyacetylamino)[1,6]naphthyridine-7-carboxylic acid (2-dimethylaminoethyl)amide] showed an IC50 of 37.3 nM.

`COCC=Cc1nc(C(=O)NCCN(C)C)c(O)c2ncc(Cc3ccc(F)cc3)cc12` [Example B-20, 3-(4-fluorobenzyl)-8-hydroxy-5-(3-methoxypropenyl)[1,6]naphthyridine-7-carboxylic acid (2-dimethylaminoethyl)amide hydrochloride monohydrate] gave an IC50 of 34.5 nM. The compound `CCC(O)CNC(=O)c1nc(C(=O)NCCCN2CCCC2=O)c2cc(Cc3ccc(F)cc3)cnc2c1O` (stereo not drawn) [Example B-23, 3-(4-fluorobenzyl)-8-hydroxy[1,6]naphthyridine-5,7-dicarboxylic acid 7-[(2-hydroxybutyl)amide]5-{[3-(2-oxopyrrolidine-1-yl)propyl]amide}] had an IC50 of 35.3 nM.

In the case of `CCC(O)CNC(=O)c1nc(C(=O)NC(C)(C)C)c2cc(Cc3ccc(F)cc3)cnc2c1O` (stereo not drawn) [Example B-21, 3-(4-fluorobenzyl)-8-hydroxy[1,6]naphthyridine-5,7-dicarboxylic acid 5-tert-butylamide 7-[(2-hydroxybutyl)amide]], the IC50 is 17.9 nM. Regarding `COCC(=O)Nc1nc(C(=O)NC(C)CO)c(O)c2ncc(Cc3ccc(F)cc3)cc12` (stereo not drawn) [Example B-10, 3-(4-fluorobenzyl)-8-hydroxy-5-(2-methoxyacetylamino)[1,6]naphthyridine-7-carboxylic acid (2-hydroxy-1-methylethyl)amide], the half-inhibitory concentration (IC50) is 49.7 nM. Regarding `CCC(O)CNC(=O)c1nc(C(=O)NCCOC)c2cc(Cc3ccc(F)cc3)cnc2c1O` (stereo not drawn) [Example B-22, 3-(4-fluorobenzyl)-8-hydroxy[1,6]naphthyridine-5,7-dicarboxylic acid 7-[(2-hydroxybutyl)amide] 5-[(2-methoxyethyl)amide]], it took 36.1 nM to reach half-maximal inhibition (IC50).

`CNC(=O)C(=O)Nc1nc(C(=O)NCCOC)c(O)c2ncc(Cc3ccc(F)cc3)cc12` [Example A-3, N-[3-(4-fluorobenzyl)-8-hydroxy-7-(2-methoxyethylcarbamoyl)[1,6]naphthyridine-5-yl]-N′-methyloxal amide] gave an IC50 of 41.7 nM. On to `CCC(O)CNC(=O)c1nc(NC(=O)COC)c2cc(Cc3ccc(F)cc3)cnc2c1O` (stereo not drawn) [Example B-1, 3-(4-fluorobenzyl)-8-hydroxy-5-(2-methoxyacetylamino)-[1,6]naphthyridine-7-carboxylic acid (2-hydroxybutyl)amide], for which the IC50 was 24.1 nM. The same measure, in the same setting: the figure for `COCC(=O)Nc1nc(C(=O)NCCCN(C)C)c(O)c2ncc(Cc3ccc(F)cc3)cc12` [Example B-13, 3-(4-fluorobenzyl)-8-hydroxy-5-(2-methoxyacetylamino)[1,6]naphthyridine-7-carboxylic acid (3-dimethylaminopropyl)amide] is 70.3 nM; for `CCN(CC)CCCNC(=O)c1nc(NC(=O)COC)c2cc(Cc3ccc(F)cc3)cnc2c1O` [Example B-12, 3-(4-fluorobenzyl)-8-hydroxy-5-(2-methoxyacetylamino)[1,6]naphthyridine-7-carboxylic acid (3-diethylaminopropyl)amide] it is 159 nM. `CCC(O)CNC(=O)c1nc(C(=O)NCC2CCCO2)c2cc(Cc3ccc(F)cc3)cnc2c1O` (stereo not drawn) [Example B-24, 3-(4-fluorobenzyl)-8-hydroxy[1,6]naphthyridine-5,7-dicarboxylic acid 7-[(2-hydroxybutyl)amide] 5-[(tetrahydrofuran-2-ylmethyl)amide]] gave an IC50 of 30.2 nM.

One may read the melting point as the temperature of the solid-liquid transition. The term IC50 denotes the concentration that inhibits the measured activity by half. High values mean a need for much substance, low ones inhibition by little substance.
